target: T1, human platelet PDE-V (Homo sapiens, UniProt O76074); assay: cGMP-Phosphodiesterase (PDE) assay; enzymatic inhibitory test against human platelet PDE-V; assay type: biochemical; details: 0.1 μM [3H]-cGMP substrate, 30° C., 10 minutes
T1 construct: Human platelet cGMP-PDE was separated from other isozymes in human platelets; from tissue; host or cells: human platelets
Method: [II] Test Method: cGMP-Phosphodiesterase (PDE) Assay
Human platelet cGMP-PDE was separated from other isozymes in human platelets by a modification of the method of Thompson et. al. (see Cyclic Nucleotide Phosphodiesterase (PDE), in Methods of Enzymatic analysis, Vol 4, p127-234, 1984). Specific inhibitory activity of PDE-V was measured by following procedure. In enzyme inhibition assays, the test compounds were dissolved in DMSO and then diluted with assay buffer (50 mM Tris-HCl, 0.077 mg/ml dithiothreitol and 10 mg/ml snake venom, 1 mM EGTA, pH 8.0), at final concentrations ranging from 10^−10 to 10^−6 M. Assays were performed at 0.1 μM substrate ([^3H]-cGMP) concentration, at 30° C. for 10 minutes using enzyme dilutions which gave 10-20% hydrolysis of substrate. Each assay was initiated by addition of substrate and terminated by addition of anion exchange resin (Dowex® 1-X8, […]) followed by centrifugation for 10 minutes (3000 rpm, at 4° C.). Radioactivity of supernatant ([^3H]-GMP) was assayed by liquid scintillation counting.

| IC50 [nM] | SMILES |
| --- | --- |
| < 10 | COc1ccc(Cn2c(=O)n([C@H]3CC[C@H](O)CC3)c3ncc(C#N)cc32)cc1Cl [Example 33, 1-(3-chloro-4-methoxybenzyl)-6-cyano-3-(trans-4-hydroxycyclohexyl)-2,3-dihydro-1H-imidazo[4,5-b]pyridin-2-one] |
| < 10 | COc1ccc(Cn2c(=O)n(C3CCC4OC(C)(C)OC4C3)c3ccc(C#N)cc32)cc1Cl (centres unmarked) [Example 2(95), 3-(3-Chloro-4-methoxybenzyl)-5-cyano-1-(t-3,t-4-isopropylidenedioxy-r-1-cyclohexyl)-2,3-dihydro-1H-benzimidazol-2-one] |
| < 10 | COc1ccc(Cn2c(=O)n(C3CCN(C)CC3)c3ccc(C#N)cc32)cc1Cl [Example 28, 3-(3-chloro-4-methoxybenzyl)-5-cyano-1-(1-methylpiperidin-4-yl)-2,3-dihydro-1H-benzimidazole-2-one] |

| SMILES | IC50 [nM] |
| --- | --- |
| COc1ccc(Cn2c(=O)n([C@H]3CCN(C(=O)OC(C)(C)C)C3)c3ccc(C#N)cc32)cc1Cl [Example 2(60), 1-[(S)-1-tert-Butoxycarbonylpyrrolidin-3-yl]-3-(3-chloro-4-methoxybenzyl)-5-cyano-2,3-dihydro-1H-benzimidazol-2-one] | < 10 |
| COc1ccc(Cn2c(=O)n([C@H]3CC[C@H](O)CC3)c3ccc([N+](=O)[O-])cc32)cc1[N+](=O)[O-] [Example 2(109), 1-(trans-4-Hydroxycyclohexyl)-3-(4-methoxy-3-nitrobenzyl)-5-nitro-1,3-dihydro-2H-benzimidazol-2-one] | < 10 |

system: not given; assay: not given; details: not given

| melting point [°C] | SMILES |
| --- | --- |
| 170 to 171.5 | O=c1n(Cc2ccc(Cl)c(Cl)c2)c2cc(C(F)(F)F)cnc2n1[C@H]1CC[C@H](O)CC1 [Example 19(3), 1-(3,4-Dichlorobenzyl)-3-(trans-4-hydroxycyclohexyl)-6-trifluoromethyl-2,3-dihydro-1H-imidazo[4,5-b]pyridin-2-one] |
| 122 to 124 | CCCCn1c(=O)n(Cc2ccc(OC)c(Cl)c2)c2cc(C(F)(F)F)ccc21 [Example 2(36), 1-Butyl-3-(3-chloro-4-methoxybenzyl)-5-trifluoromethyl-2,3-dihydro-1H-benzimidazol-2-one] |
| 166 to 167 | COc1ccc(Cn2c(=O)n([C@H]3CC[C@H](O)CC3)c3ccc(Cl)cc32)cc1OC [Example 2(9), 5-Chloro-3-(3,4-dimethoxybenzyl)-1-(trans-4-hydroxycyclohexyl)-2,3-dihydro-1H-benzimidazol-2-one] |
| 114 to 116 | COc1ccc(Cn2c(=O)n([C@H]3CC[C@H](O)CC3)c3ncc(C#N)cc32)cc1Br [Example 2(100), 1-(3-Bromo-4-methoxybenzyl)-6-cyano-3-(trans-4-hydroxycyclohexyl)-2,3-dihydro-1H-imidazo[4,5-b]pyridin-2-one] |
| 174 to 175 | COc1ccc(Cn2c(=O)n(-c3ccc4[nH]cnc4c3)c3ccc(C(F)(F)F)cc32)cc1OC [Example 2(20), 1-(1H-Benzimidazol-5-yl)-3-(3,4-dimethoxybenzyl)-5-trifluoromethyl-2,3-dihydro-1H-benzimidazol-2-one] |
| 106 to 107 | COc1ccc(Cn2c(=O)n(CCO)c3ccc(C(F)(F)F)cc32)cc1Cl [Example 4(7), 3-(3-Chloro-4-methoxybenzyl)-1-(2-hydroxyethyl)-5-trifluoromethyl-2,3-dihydro-1H-benzimidazol-2-one] |
| 174 to 175 | COC(=O)c1ccc2c(c1)n(Cc1ccc(OC)c(Cl)c1)c(=O)n2[C@H]1CC[C@H](O)CC1 [Example 2(27), 3-(3-Chloro-4-methoxybenzyl)-1-(trans-4-hydroxycyclohexyl)-5-methoxycarbonyl-2,3-dihydro-1H-benzimidazol-2-one] |
| 262 to 262.5 | COc1ccc(Cn2c(=O)n([C@H]3CC[C@H](O)CC3)c3ncc(C(=O)O)cc32)cc1Cl [Example 19(25), 6-Carboxy-1-(3-chloro-4-methoxybenzyl)-3-(trans-4-hydroxycyclohexyl)-2,3-dihydro-1H-imidazo[4,5-b]pyridin-2-one] |
| 133 to 134 | COc1ccc(Cn2c(=O)n([C@H]3CC[C@H](O)CC3)c3ncc(C#N)cc32)cc1C#N [Example 2(102), 6-Cyano-1-(3-cyano-4-methoxybenzyl)-3-(trans-4-hydroxycyclohexyl)-2,3-dihydro-1H-imidazo[4,5-b]pyridin-2-one] |
| 134 to 135 | COc1ccc(Cn2c(=O)n([C@H]3CC[C@H](O)CC3)c3ncc(C(=O)NCc4cccnc4)cc32)cc1Cl [Example 21(2), 1-(3-Chloro-4-methoxybenzyl)-6-(3-picolylcarbamoyl)-3-(trans-4-hydroxycyclohexyl)-2,3-dihydro-1H-imidazo[4,5-b]pyridin-2-one] |
| 160 to 161 | COc1ccc(Cn2c(=O)n(C3CCCCC3)c3ccc(C(F)(F)F)cc32)cc1Cl [Example 2(37), 1-Cyclohexyl-3-(3-chloro-4-methoxybenzyl)-5-trifluoromethyl-2,3-dihydro-1H-benzimidazol-2-one] |
| 169 to 170 | COc1ccc(Cn2c(=O)n([C@H]3CC[C@H](O)CC3)c3ccc(C(C)=O)cc32)cc1OC [Example 2(7), 5-Acetyl-3-(3,4-dimethoxybenzyl)-1-(trans-4-hydroxycyclohexyl)-2,3-dihydro-1H-benzimidazol-2-one] |
| 291.5 to 292 | COc1ccc(Cn2c(=O)n([C@H]3CC[C@H](O)CC3)c3ccc(C(N)=O)cc32)cc1Cl [Example 20, 5-carbamoyl-3-(3-chloro-4-methoxybenzyl)-1-(trans-4-hydroxycyclohexyl)-2,3-dihydro-1H-benzimidazol-2-one] |
| 209 to 210 | COc1ccc(Cn2c(=O)n([C@H]3CC[C@H](O)CC3)c3ccc(C(C)=O)cc32)cc1Cl [Example 2(22), 5-Acetyl-3-(3-chloro-4-methoxybenzyl)-1-(trans-4-hydroxycyclohexyl)-2,3-dihydro-1H-benzimidazol-2-one] |
| 178 to 179 | COc1ccc(Cn2c(=O)n([C@H]3CC[C@H](O)CC3)c3ccc(C(F)(F)F)cc32)cc1F [Example 2(30), 3-(3-Fluoro-4-methoxybenzyl)-1-(trans-4-hydroxycyclohexyl)-5-trifluoromethyl-2,3-dihydro-1H-benzimidazol-2-one] |
| 281 to 282 | COc1ccc(Cn2c(=O)n(-c3ccc4[nH]ccc4c3)c3ncc(C#N)cc32)cc1Cl [Example 2(105), 1-(3-Chloro-4-methoxybenzyl)-3-(1H-indol-5-yl)-6-cyano-2,3-dihydro-1H-imidazo[4,5-b]pyridin-2-one] |
| 108 to 109 | COc1ccc(Cn2c(=O)n([C@H](C)CO)c3ccc(C(F)(F)F)cc32)cc1Cl [Example 4(4), 3-(3-Chloro-4-methoxybenzyl)-1-((R)-2-hydroxy-1-methylethyl)-5-trifluoromethyl-2,3-dihydro-1H-benzimidazol-2-one] |
| 115 to 116 | COc1c(Cl)cc(Cn2c(=O)n([C@H]3CC[C@H](O)CC3)c3ccc([N+](=O)[O-])cc32)cc1Cl [Example 2(26), 3-(3,5-Dichloro-4-methoxybenzyl)-1-(trans-4-hydroxycyclohexyl)-5-nitro-2,3-dihydro-1H-benzimidazol-2-one] |
| 167 to 168 | COc1ccc(Cn2c(=O)n([C@H]3CC[C@H](O)CC3)c3ccc(C(F)(F)F)cc32)cc1Cl [Example 2(24), 3-(3-Chloro-4-methoxybenzyl)-1-(trans-4-hydroxycyclohexyl)-5-trifluoromethyl-2,3-dihydro-1H-benzimidazol-2-one] |
| 121 to 123 | COc1ccc(Cn2c(=O)n([C@H]3CC[C@H](O)CC3)c3ncc(C(F)(F)F)cc32)cc1Cl [Example 19(2), 1-(3-Chloro-4-methoxybenzyl)-3-(trans-4-hydroxycyclohexyl)-6-trifluoromethyl-2,3-dihydro-1H-imidazo[4,5-b]pyridin-2-one] |

| SMILES | melting point [°C] |
| --- | --- |
| COc1ccc(Cn2c(=O)n([C@H]3CCN(C(=O)OC(C)(C)C)C3)c3ccc(C(F)(F)F)cc32)cc1Cl [Example 2(19), 1-((S)-1-tert-Butoxycarbonylpyrrolidin-3-yl)-3-(3-chloro-4-methoxybenzyl)-5-trifluoromethyl-2,3-dihydro-1H-benzimidazol-2-one] | 157 to 157.5 |
| COc1ccc(Cn2c(=O)n([C@H]3CCN(C(=O)OC(C)(C)C)C3)c3ccc(C(F)(F)F)cc32)cc1OC [Example 2(18), 1-((S)-1-tert-Butoxycarbonylpyrrolidin-3-yl)-3-(3,4-dimethoxybenzyl)-5-trifluoromethyl-2,3-dihydro-1H-benzimidazol-2-one] | 122 to 122.5 |
| COc1ccc(Cn2c(=O)n([C@H]3CC[C@H](NC(=O)OC(C)(C)C)CC3)c3ccc(C(F)(F)F)cc32)cc1Cl [Example 2(99), 1-[trans-4-(N-tert-Butoxycarbonylamino)cyclohexyl]-3-(3-chloro-4-methoxybenzyl)-5-trifluoromethyl-2,3-dihydro-1H-benzimidazol-2-one] | 185.5 to 187 |
| COc1ccc(Cn2c(=O)n([C@H]3CC[C@H](OC(C)=O)CC3)c3ccc([N+](=O)[O-])cc32)cc1OC [Example 22(1), 1-(trans-4-Acetoxycyclohexyl)-3-(3,4-dimethoxybenzyl)-5-nitro-2,3-dihydro-1H-benzimidazol-2-one] | 207 to 207.5 |

From patent publication US6582351B1, “Imidazopyridinone derivatives and their use as phosphodiesterase inhibitors” (Fujisawa Pharmaceutical Co., Ltd., priority 1999, dated 2003)
